Laboratory results as given in patent US20230271954A1 (Gossamer Bio Services, Inc., priority 2020, published 2023).

Legend:
DGKζ = biological target: T1, DGKζ (Homo sapiens, UniProt Q13574); assay: DGKζ biochemical assay (ADP-Glo); conditions: read-out: DGK ζ IC50
T1 construct: purchased Carna 12-110

DGKα = DGKα (Homo sapiens, UniProt P23743); assay: DGKα biochemical assay (ADP-Glo); conditions: read-out: DGK α IC50
Procedure, shortened: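 ADP-Glo kinase assay using OAG/PS (1:2) lipid substrate, sonicated, in HEPES pH 7.0 buffer with MgCl2, CaCl2, DTT, BSA, Triton X-100. Enzyme preincubated with compound 30 min at RT; substrate with ATP (DGKα: 400 μM) added, 45 min RT. Luminescence read; % inhibition vs DMSO and no-enzyme controls.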

T1 sequence (Q13574 1-929 isoform Q13574-4): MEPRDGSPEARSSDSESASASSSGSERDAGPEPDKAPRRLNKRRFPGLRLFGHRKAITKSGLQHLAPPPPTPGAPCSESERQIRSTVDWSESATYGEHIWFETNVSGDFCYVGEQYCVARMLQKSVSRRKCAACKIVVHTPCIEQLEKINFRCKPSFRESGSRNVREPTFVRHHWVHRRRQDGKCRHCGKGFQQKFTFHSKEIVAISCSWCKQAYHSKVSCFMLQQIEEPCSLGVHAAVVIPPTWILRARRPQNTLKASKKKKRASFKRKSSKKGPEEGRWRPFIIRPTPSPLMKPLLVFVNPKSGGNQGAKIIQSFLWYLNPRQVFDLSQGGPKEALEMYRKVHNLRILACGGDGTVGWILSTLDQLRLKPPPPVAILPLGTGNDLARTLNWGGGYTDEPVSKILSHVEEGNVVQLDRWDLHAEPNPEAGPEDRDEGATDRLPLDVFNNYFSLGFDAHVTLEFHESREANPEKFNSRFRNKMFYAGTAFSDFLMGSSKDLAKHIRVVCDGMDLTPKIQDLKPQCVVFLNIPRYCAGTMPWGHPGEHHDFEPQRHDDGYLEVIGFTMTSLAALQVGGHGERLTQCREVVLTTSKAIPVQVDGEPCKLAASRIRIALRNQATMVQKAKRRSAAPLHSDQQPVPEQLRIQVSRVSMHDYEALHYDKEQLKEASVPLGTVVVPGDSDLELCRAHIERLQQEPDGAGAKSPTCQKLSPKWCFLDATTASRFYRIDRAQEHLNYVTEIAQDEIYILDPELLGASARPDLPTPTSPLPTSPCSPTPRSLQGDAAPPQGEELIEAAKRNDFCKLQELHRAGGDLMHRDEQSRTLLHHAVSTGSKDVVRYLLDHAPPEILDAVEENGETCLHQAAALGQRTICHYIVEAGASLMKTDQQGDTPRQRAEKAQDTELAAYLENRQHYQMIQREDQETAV
Chain of DGKα (P23743 whole entry): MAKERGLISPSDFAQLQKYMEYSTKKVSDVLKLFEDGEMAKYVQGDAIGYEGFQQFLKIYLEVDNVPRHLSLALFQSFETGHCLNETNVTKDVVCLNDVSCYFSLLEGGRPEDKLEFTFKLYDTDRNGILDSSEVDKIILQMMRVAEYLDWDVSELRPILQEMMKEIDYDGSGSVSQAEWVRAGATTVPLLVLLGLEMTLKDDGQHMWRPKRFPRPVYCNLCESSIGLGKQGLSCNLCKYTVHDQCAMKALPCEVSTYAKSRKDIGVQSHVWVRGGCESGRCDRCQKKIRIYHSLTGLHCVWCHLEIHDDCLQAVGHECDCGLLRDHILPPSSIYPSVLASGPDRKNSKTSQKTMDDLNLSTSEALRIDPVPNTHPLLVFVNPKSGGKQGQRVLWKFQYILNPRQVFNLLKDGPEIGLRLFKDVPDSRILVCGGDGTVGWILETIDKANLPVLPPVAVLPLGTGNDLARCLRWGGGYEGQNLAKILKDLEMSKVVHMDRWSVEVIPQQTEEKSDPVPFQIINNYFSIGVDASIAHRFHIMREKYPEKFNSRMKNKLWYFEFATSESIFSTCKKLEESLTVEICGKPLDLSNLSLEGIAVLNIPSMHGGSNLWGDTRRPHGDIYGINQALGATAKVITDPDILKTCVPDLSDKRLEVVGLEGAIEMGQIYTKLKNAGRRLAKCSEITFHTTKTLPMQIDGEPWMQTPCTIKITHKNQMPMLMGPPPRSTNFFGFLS

| IC50 (DGKζ) [nM] | IC50 (DGKα) [nM] | Compound |
| --- | --- | --- |
| ≥ 1000 | < 10 | Cn1c(=O)c(C#N)c(N[C@H]2CC[C@H](N(c3ccccc3)C3CC3)CC2)c2nc(Cl)ccc21 [Example 3A, trans-6-Chloro-4-((4-(cyclopropyl(phenyl)amino)cyclohexyl)amino)-1-methyl-2-oxo-1,2-dihydro-1,5-naphthyridine-3-carbonitrile] |
| 100 to 1000 | < 10 | Cn1c(=O)c(C#N)c(N(C)[C@H]2CC[C@@H](N(c3ccc(F)cc3)C3CCC3)CC2)c2nc(C#N)ccc21 [Example 16] |
| 100 to 1000 | 100 to 1000 | Cn1c(=O)c(C#N)c(N(C)[C@H]2CC[C@H](N(c3ccc(F)cc3)C3CCC3)CC2)c2nc(C#N)ccc21 [Example 19] |
| ≥ 1000 | 10 to 100 | Cc1ccc2c(c1)c(N1CCC(N(CC3CC3)c3ccccc3)CC1)cc1nncn12 [Example 1F, N-(Cyclopropylmethyl)-1-(7-methyl-[1,2,4]triazolo[4,3-a]quinolin-5-yl)-N-phenylpiperidin-4-amine] |
| 10 to 100 | < 10 | Cn1c(=O)c(C#N)c(N(C)[C@H]2CC[C@@H](N(CC3CCCOC3)c3ccc4c(c3)OCO4)CC2)c2nc(C#N)ccc21 (stereo partly drawn) [Example 116, cis-8-((-4-(benzo[d][1,3]dioxol-5-yl((tetrahydro-2H-pyran-3-yl)methyl)amino)cyclohexyl)(methyl)amino)-5-methyl-6-oxo-5,6-dihydro-1,5-naphthyridine-2,7-dicarbonitrile] |
| 100 to 1000 | 10 to 100 | Cn1c(=O)c([N+](=O)[O-])c(N2CCC(N(CC3CC3)c3ccccc3)CC2)c2nc(C#N)ccc21 [Example 1B, 8-(4-((Cyclopropylmethyl)(phenyl)amino)piperidin-1-yl)-5-methyl-7-nitro-6-oxo-5,6-dihydro-1,5-naphthyridine-2-carbonitrile] |
| 100 to 1000 | 100 to 1000 | Cn1c(=O)cc(N(C)[C@H]2CC[C@@H](N(CC3CC3)c3ccc(F)c(OC4CC4)c3)CC2)c2nc(C#N)ccc21 [Example 122, cis-8-((-4-((3-cyclopropoxy-4-fluorophenyl) (cyclopropylmethyl)amino)cyclohexyl)(methyl)amino)-5-methyl-6-oxo-5,6-dihydro-1,5-naphthyridine-2-carbonitrile] |
| ≥ 1000 | 100 to 1000 | Cn1c(=O)cc(N2CCC(N(CC3CC3)c3ccccc3O)CC2)c2nc(C#N)ccc21 [Example 1A, 8-(4-((Cyclopropylmethyl)(2-hydroxyphenyl)amino)piperidin-1-yl)-5-methyl-6-oxo-5,6-dihydro-1,5-naphthyridine-2-carbonitrile] |
| 100 to 1000 | 10 to 100 | Cn1c(=O)c(C#N)c(N(C)[C@H]2CC[C@H](N(c3ccccc3O)C3CC3)CC2)c2nc(Cl)ccc21 [Example 3D, 6-Chloro-4-((trans-4-(cyclopropyl(2-hydroxyphenyl)amino)cyclohexyl)(methyl)amino)-1-methyl-2-oxo-1,2-dihydro-1,5-naphthyridine-3-carbonitrile] |
| ≥ 1000 | ≥ 1000 | CC(C)CN(c1ccnn1C)[C@H]1CC[C@H](N(C)c2c(C#N)c(=O)n(C)c3ccc(C#N)nc23)CC1 [Example 176, trans-8-((-4-(isobutyl(1-methyl-1H-pyrazol-5-yl)amino)cyclohexyl)(methyl)amino)-5-methyl-6-oxo-5,6-dihydro-1,5-naphthyridine-2,7-dicarbonitrile] |
| 10 to 100 | 10 to 100 | Cn1c(=O)c(C#N)c(N(C)[C@H]2CC[C@@H](N(CC3CCC3)c3ccc4c(c3)OC(F)(F)O4)CC2)c2nc(C#N)ccc21 [Example 121, cis-8-((-4-((cyclobutylmethyl)(2,2-difluorobenzo[d] [1,3]dioxol-5-yl)amino)cyclohexyl)(methyl)amino)-5-methyl-6-oxo-5,6-dihydro-1,5-naphthyridine-2,7-dicarbonitrile] |
| ≥ 1000 | 10 to 100 | COc1ccc(N(C2CC2)[C@H]2CC[C@H](N(C)c3c(C#N)c(=O)n(C)c4ccc(Cl)nc34)CC2)cc1 [Example 3E, trans-6-chloro-4-((4-(cyclopropyl(4-methoxyphenyl)amino)cyclohexyl)(methyl)amino)-1-methyl-2-oxo-1,2-dihydro-1,5-naphthyridine-3-carbonitrile] |
| ≥ 1000 | 10 to 100 | Cn1c(=O)cc(N[C@H]2CC[C@H](N(CC3CC3)c3ccc(F)cc3)CC2)c2nc(C#N)ccc21 [Example 3R, trans-8-((4-((Cyclopropylmethyl)(4-fluorophenyl)amino)cyclohexyl)amino)-5-methyl-6-oxo-5,6-dihydro-1,5-naphthyridine-2-carbonitrile] |
| 10 to 100 | < 10 | Cn1c(=O)c(C#N)c(N(C)[C@H]2CC[C@@H](N(C[C@H]3CCCOC3)c3ccc4c(c3)OCO4)CC2)c2nc(C#N)ccc21 [Example 143, cis-8-((-4-(benzo[d][1,3]dioxol-5-yl(((R)-tetrahydro-2H-pyran-3-yl)methyl)amino)cyclohexyl)(methyl)amino)-5-methyl-6-oxo-5,6-dihydro-1,5-naphthyridine-2,7-dicarbonitrile] |
| 10 to 100 | 10 to 100 | Cn1c(=O)c(C#N)c(N(C)[C@H]2CC[C@@H](N(CC3CCC3)c3cccc4c3OCO4)CC2)c2nc(C#N)ccc21 [Example 109, cis-8-((-4-(benzo[d][1,3]dioxol-4-yl(cyclobutylmethyl)amino)cyclohexyl)(methyl)amino)-5-methyl-6-oxo-5,6-dihydro-1,5-naphthyridine-2,7-dicarbonitrile] |
| 100 to 1000 | ≥ 1000 | Cc1cc(F)ccc1N(CC1CC1)[C@H]1CC[C@H](N(C)c2cc(=O)n(C)c3ccc(C#N)nc23)CC1 [Example 72, trans-8-((4-((cyclopropylmethyl)(4-fluoro-2-methylphenyl)amino)cyclohexyl)(methyl)amino)-5-methyl-6-oxo-5,6-dihydro-1,5-naphthyridine-2-carbonitrile] |
| 100 to 1000 | < 10 | Cn1c(=O)cc(N(C)[C@H]2CC[C@@H](N(CC3CCC3)c3ccc(F)cc3)CC2)c2nc(C#N)ccc21 [Example 43, cis-8-((-4-((cyclobutylmethyl)(4-fluorophenyl)amino)cyclohexyl)(methyl)amino)-5-methyl-6-oxo-5,6-dihydro-1,5-naphthyridine-2-carbonitrile] |
| ≥ 1000 | ≥ 1000 | COc1cc(N(CC2CC2)[C@H]2CC[C@H](N(C)c3cc(=O)n(C)c4ccc(C#N)nc34)CC2)ccc1F [Example 36, trans-8-((4-((cyclopropylmethyl)(4-fluoro-3-methoxyphenyl)amino)cyclohexyl)(methyl)amino)-5-methyl-6-oxo-5,6-dihydro-1,5-naphthyridine-2-carbonitrile] |
| ≥ 1000 | ≥ 1000 | Cc1cc(F)c(F)cc1N(CC1CCC1)[C@H]1CC[C@H](N(C)c2c(C#N)c(=O)n(C)c3ccc(C#N)nc23)CC1 [Example 138, trans-8-((4-((cyclobutylmethyl)(4,5-difluoro-2-methylphenyl)amino)cyclohexyl)(methyl)amino)-5-methyl-6-oxo-5,6-dihydro-1,5-naphthyridine-2,7-dicarbonitrile] |
| ≥ 1000 | 10 to 100 | Cn1c(=O)c(C#N)c(N(C)[C@H]2CC[C@@H](N(CC3CC3)c3ccc(Cl)cc3)CC2)c2nc(Cl)ccc21 [Example 6, cis-6-chloro-4-((4-((4-chlorophenyl) (cyclopropylmethyl)amino)cyclohexyl)(methyl)amino)-1-methyl-2-oxo-1,2-dihydro-1,5-naphthyridine-3-carbonitrile] |
| ≥ 1000 | ≥ 1000 | Cn1c(=O)c([N+](=O)[O-])c(N2CCC(N(CC3COC3)c3ccccc3)CC2)c2nc(C#N)ccc21 [Example 1C, 5-Methyl-7-nitro-8-(4-((oxetan-3-ylmethyl)(phenyl)amino)piperidin-1-yl)-6-oxo-5,6-dihydro-1,5-naphthyridine-2-carbonitrile] |
| ≥ 1000 | 100 to 1000 | Cn1c(=O)cc(N(C)[C@H]2CC[C@H](N(CC3CCC3)c3ccc(F)cc3)CC2)c2nc(C#N)ccc21 [Example 44, trans-8-((-4-((cyclobutylmethyl)(4-fluorophenyl)amino)cyclohexyl)(methyl)amino)-5-methyl-6-oxo-5,6-dihydro-1,5-naphthyridine-2-carbonitrile] |
| 100 to 1000 | 10 to 100 | Cc1ccc(N(CC2CCC2)[C@H]2CC[C@@H](N(C)c3cc(=O)n(C)c4ccc(C#N)nc34)CC2)cc1OC(F)F [Example 147, cis-8-((-4-((cyclobutylmethyl)(3-(difluoromethoxy)-4-methylphenyl)amino)cyclohexyl)(methyl)amino)-5-methyl-6-oxo-5,6-dihydro-1,5-naphthyridine-2-carbonitrile] |
| ≥ 1000 | < 10 | COc1cc(N(CC2CC2)[C@H]2CC[C@H](N(C)c3c(C#N)c(=O)n(C)c4ccc(Cl)nc34)CC2)cc(F)c1F [Example 85] |
| ≥ 1000 | ≥ 1000 | Cc1nc(F)ccc1N(CC1CCC1)[C@H]1CC[C@H](N(C)c2c(C#N)c(=O)n(C)c3ccc(Cl)nc23)CC1 [Example 139, trans-6-chloro-4-((-4-((cyclobutylmethyl)(6-fluoro-2-methylpyridin-3-yl)amino)cyclohexyl)(methyl)amino)-1-methyl-2-oxo-1,2-dihydro-1,5-naphthyridine-3-carbonitrile] |
| ≥ 1000 | 10 to 100 | Cn1c(=O)c(C#N)c(N(C)[C@H]2CC[C@H](N(CC3COC3)c3ccc(F)cc3)CC2)c2nc(Cl)ccc21 [Example 3N, trans-6-Chloro-4-[[4-(N-4-fluorophenyl-N-oxetan-3-ylmethylanilino)cyclohexyl]-methylamino]-1-methyl-2-oxo-1,2-dihydro-1,5-naphthyridine-3-carbonitrile] |
